Molecular target: Aβ42 (Homo sapiens, UniProt P05067)
Assay: Th-T (thioflavin-T) assay of Aβ42 aggregation
Format: biochemical
Settings: for Th-T assay plate reading, mean of three wells (Supplementary Fig. 47): source data, Ab alone and No Ab as controls

Chain of Aβ42 (P05067 672-713): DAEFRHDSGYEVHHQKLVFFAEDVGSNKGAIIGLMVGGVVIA

- Th-T fluorescence, mean of three wells (Aβ42 aggregation time course, reading M117): 3.93
- Th-T fluorescence, mean of three wells (Aβ42 aggregation time course, reading M118): 3.9367
- Th-T fluorescence, mean of three wells (Aβ42 aggregation time course, reading M119): 3.915
- Th-T fluorescence, mean of three wells (Aβ42 aggregation time course, reading M120): 3.905
- Th-T fluorescence, mean of three wells (Aβ42 aggregation time course, reading M121): 3.903
- Th-T fluorescence, mean of three wells (Aβ42 aggregation time course, reading M122): 3.899
- Th-T fluorescence, mean of three wells (Aβ42 aggregation time course, reading M123): 3.9273
- Th-T fluorescence, mean of three wells (Aβ42 aggregation time course, reading M124): 3.899
- Th-T fluorescence, mean of three wells (Aβ42 aggregation time course, reading M125): 3.909
- Th-T fluorescence, mean of three wells (Aβ42 aggregation time course, reading M126): 3.889
- Th-T fluorescence, mean of three wells (Aβ42 aggregation time course, reading M127): 3.86
- Th-T fluorescence, mean of three wells (Aβ42 aggregation time course, reading M128): 3.875
- Th-T fluorescence, mean of three wells (Aβ42 aggregation time course, reading M129): 3.876
- Th-T fluorescence, mean of three wells (Aβ42 aggregation time course, reading M130): 3.844
- Th-T fluorescence, mean of three wells (Aβ42 aggregation time course, reading M131): 3.869
- Th-T fluorescence, mean of three wells (Aβ42 aggregation time course, reading M132): 3.865
- Th-T fluorescence, mean of three wells (Aβ42 aggregation time course, reading M133): 3.8524
- Th-T fluorescence, mean of three wells (Aβ42 aggregation time course, reading M134): 3.8749
- Th-T fluorescence, mean of three wells (Aβ42 aggregation time course, reading M135): 3.85
- Th-T fluorescence, mean of three wells (Aβ42 aggregation time course, reading M136): 3.855
- Th-T fluorescence, mean of three wells (Supplementary Fig. 47, reading M137): 3.87
- Th-T fluorescence, mean of three wells (Supplementary Fig. 47, reading M138): 3.855
- Th-T fluorescence, mean of three wells (Supplementary Fig. 47, reading M139): 3.871
- Th-T fluorescence, mean of three wells (Supplementary Fig. 47, reading M140): 3.832
- Th-T fluorescence, mean of three wells (Supplementary Fig. 47, reading M141): 3.853
- Th-T fluorescence, mean of three wells (Supplementary Fig. 47, reading M142): 3.823
- Th-T fluorescence, mean of three wells (Supplementary Fig. 47, reading M143): 3.843
- Th-T fluorescence, mean of three wells (Supplementary Fig. 47, reading M144): 3.8288
- Th-T fluorescence, mean of three wells (Supplementary Fig. 47, reading M145): 3.794
- Th-T fluorescence, mean of three wells (Supplementary Fig. 47 source data, measurement M37 of time course): 4.118
- Th-T fluorescence, mean of three wells (Supplementary Fig. 47 source data, measurement M38 of time course): 4.1
- Th-T fluorescence, mean of three wells (Supplementary Fig. 47 source data, measurement M39 of time course): 4.133
- Th-T fluorescence, mean of three wells (Supplementary Fig. 47 source data, measurement M40 of time course): 4.141
- Th-T fluorescence, mean of three wells (Supplementary Fig. 47 source data, measurement M41 of time course): 4.132
- Th-T fluorescence, mean of three wells (Supplementary Fig. 47 source data, measurement M42 of time course): 4.118
- Th-T fluorescence, mean of three wells (Supplementary Fig. 47 source data, measurement M43 of time course): 4.101
- Th-T fluorescence, mean of three wells (Supplementary Fig. 47 source data, measurement M44 of time course): 4.12
- Th-T fluorescence, mean of three wells (Supplementary Fig. 47 source data, measurement M45 of time course): 4.146
- Th-T fluorescence, mean of three wells (Supplementary Fig. 47 source data, measurement M46 of time course): 4.159
- Th-T fluorescence, mean of three wells (Supplementary Fig. 47 source data, measurement M47 of time course): 4.139
- Th-T fluorescence, mean of three wells (Supplementary Fig. 47 source data, measurement M48 of time course): 4.146
- Th-T fluorescence, mean of three wells (Supplementary Fig. 47 source data, measurement M49 of time course): 4.116
- Th-T fluorescence, mean of three wells (Supplementary Fig. 47 source data, measurement M50 of time course): 4.153
- Th-T fluorescence, mean of three wells (Supplementary Fig. 47 source data, measurement M51 of time course): 4.157
- Th-T fluorescence, mean of three wells (Supplementary Fig. 47 source data, measurement M52 of time course): 4.123
- Th-T fluorescence, mean of three wells (Supplementary Fig. 47 source data, measurement M53 of time course): 4.133
- Th-T fluorescence, mean of three wells (Supplementary Fig. 47 source data, measurement M54 of time course): 4.156
- Th-T fluorescence, mean of three wells (Supplementary Fig. 47 source data, measurement M55 of time course): 4.1334
- Th-T fluorescence, mean of three wells (Supplementary Fig. 47 source data, measurement M56 of time course): 4.113
- Th-T assay plate reading, mean of three wells (Supplementary Fig. 47) (measurement M1): 0.168
- Th-T assay plate reading, mean of three wells (Supplementary Fig. 47) (measurement M2): 0.1686
- Th-T assay plate reading, mean of three wells (Supplementary Fig. 47) (measurement M3): 0.1808
- Th-T assay plate reading, mean of three wells (Supplementary Fig. 47) (measurement M4): 0.1943
- Th-T assay plate reading, mean of three wells (Supplementary Fig. 47) (measurement M5): 0.213
- Th-T assay plate reading, mean of three wells (Supplementary Fig. 47) (measurement M6): 0.2405
- Th-T assay plate reading, mean of three wells (Supplementary Fig. 47) (measurement M7): 0.3234
- Th-T assay plate reading, mean of three wells (Supplementary Fig. 47) (measurement M8): 0.379
- Th-T assay plate reading, mean of three wells (Supplementary Fig. 47) (measurement M9): 0.4389
- Th-T assay plate reading, mean of three wells (Supplementary Fig. 47) (measurement M10): 0.7586
- Th-T assay plate reading, mean of three wells (Supplementary Fig. 47) (measurement M11): 1.544
- Th-T assay plate reading, mean of three wells (Supplementary Fig. 47) (measurement M12): 2.364
- Th-T assay plate reading, mean of three wells (Supplementary Fig. 47) (measurement M13): 2.959
- Th-T assay plate reading, mean of three wells (Supplementary Fig. 47) (measurement M14): 3.254
- Th-T assay plate reading, mean of three wells (Supplementary Fig. 47) (measurement M15): 3.396
- Th-T assay plate reading, mean of three wells (Supplementary Fig. 47) (measurement M16): 3.5133
- Th-T fluorescence, mean of three wells (reading M17, Supplementary Fig. 47 source data): 3.637
- Th-T fluorescence, mean of three wells (reading M18, Supplementary Fig. 47 source data): 3.688
- Th-T fluorescence, mean of three wells (reading M19, Supplementary Fig. 47 source data): 3.715
- Th-T fluorescence, mean of three wells (reading M20, Supplementary Fig. 47 source data): 3.759
- Th-T fluorescence, mean of three wells (reading M21, Supplementary Fig. 47 source data): 3.811
- Th-T fluorescence, mean of three wells (reading M22, Supplementary Fig. 47 source data): 3.836
- Th-T fluorescence, mean of three wells (reading M23, Supplementary Fig. 47 source data): 3.884
- Th-T fluorescence, mean of three wells (reading M24, Supplementary Fig. 47 source data): 3.963
- Th-T fluorescence, mean of three wells (reading M25, Supplementary Fig. 47 source data): 3.926
- Th-T fluorescence, mean of three wells (reading M26, Supplementary Fig. 47 source data): 3.978
- Th-T fluorescence, mean of three wells (reading M27, Supplementary Fig. 47 source data): 3.957
- Th-T fluorescence, mean of three wells (reading M28, Supplementary Fig. 47 source data): 4.012
- Th-T fluorescence, mean of three wells (reading M29, Supplementary Fig. 47 source data): 4.002
- Th-T fluorescence, mean of three wells (reading M30, Supplementary Fig. 47 source data): 4.039
- Th-T fluorescence, mean of three wells (reading M31, Supplementary Fig. 47 source data): 4.06
- Th-T fluorescence, mean of three wells (reading M32, Supplementary Fig. 47 source data): 4.053
- Th-T fluorescence, mean of three wells (reading M33, Supplementary Fig. 47 source data): 4.071
- Th-T fluorescence, mean of three wells (reading M34, Supplementary Fig. 47 source data): 4.107
- Th-T fluorescence, mean of three wells (reading M35, Supplementary Fig. 47 source data): 4.086
- Th-T fluorescence, mean of three wells (reading M36, Supplementary Fig. 47 source data): 4.108
- Th-T fluorescence, mean of three wells (time course, reading M57): 4.13
- Th-T fluorescence, mean of three wells (time course, reading M58): 4.119
- Th-T fluorescence, mean of three wells (time course, reading M59): 4.1173
- Th-T fluorescence, mean of three wells (time course, reading M60): 4.127
- Th-T fluorescence, mean of three wells (time course, reading M61): 4.118
- Th-T fluorescence, mean of three wells (time course, reading M62): 4.092
- Th-T fluorescence, mean of three wells (time course, reading M63): 4.112
- Th-T fluorescence, mean of three wells (time course, reading M64): 4.119
- Th-T fluorescence, mean of three wells (time course, reading M65): 4.128
- Th-T fluorescence, mean of three wells (time course, reading M66): 4.121
- Th-T fluorescence, mean of three wells (time course, reading M67): 4.11
- Th-T fluorescence, mean of three wells (time-course reading M97, Supplementary Fig. 47 source data): 3.985
- Th-T fluorescence, mean of three wells (time-course reading M98, Supplementary Fig. 47 source data): 4.028
- Th-T fluorescence, mean of three wells (time-course reading M99, Supplementary Fig. 47 source data): 3.988
- Th-T fluorescence, mean of three wells (time-course reading M100, Supplementary Fig. 47 source data): 4.004
- Th-T fluorescence, mean of three wells (time-course reading M101, Supplementary Fig. 47 source data): 3.9991
- Th-T fluorescence, mean of three wells (time-course reading M102, Supplementary Fig. 47 source data): 3.997
- Th-T fluorescence, mean of three wells (time-course reading M103, Supplementary Fig. 47 source data): 3.988
- Th-T fluorescence, mean of three wells (time-course reading M104, Supplementary Fig. 47 source data): 3.979
- Th-T fluorescence, mean of three wells (time-course reading M105, Supplementary Fig. 47 source data): 4.002
- Th-T fluorescence, mean of three wells (time-course reading M106, Supplementary Fig. 47 source data): 3.966
- Th-T fluorescence, mean of three wells (time-course reading M107, Supplementary Fig. 47 source data): 3.935
- Th-T fluorescence, mean of three wells (time-course reading M108, Supplementary Fig. 47 source data): 3.958
- Th-T fluorescence, mean of three wells (time-course reading M109, Supplementary Fig. 47 source data): 3.936
- Th-T fluorescence, mean of three wells (time-course reading M110, Supplementary Fig. 47 source data): 3.951
- Th-T fluorescence, mean of three wells (time-course reading M111, Supplementary Fig. 47 source data): 3.932
- Th-T fluorescence, mean of three wells (time-course reading M112, Supplementary Fig. 47 source data): 3.941
- Th-T fluorescence, mean of three wells (time-course reading M113, Supplementary Fig. 47 source data): 3.942
- Th-T fluorescence, mean of three wells (time-course reading M114, Supplementary Fig. 47 source data): 3.927
- Th-T fluorescence, mean of three wells (time-course reading M115, Supplementary Fig. 47 source data): 3.938
- Th-T fluorescence, mean of three wells (time-course reading M116, Supplementary Fig. 47 source data): 3.922
Structure (SMILES): C=C1CC[C@H]2[C@]3(C)C[C@H](C=C(C)C)O[C@H]3CC[C@]2(C)[C@@H]1Cc1c(OC)oc(C)c(C)c1=O [Compound 24]

— publication PMC7156458, “Synthetic biology based construction of biological activity-related library of fungal decalin-containing diterpenoid pyrones” (Nature Communications, 2020)
